Tested on: FLUV (A/WSN/33)
Type: cell-based, influenza A/WSN/33

CCOC(=O)C1=C[C@@H](OC(CC)CC)[C@H](NC(C)=O)[C@@H](N)C1 [Oseltamivir]
activity against FLUV after 7 passages with compound (resistance development): lost activity by passage 7
